Assay results reported in ChEMBL document CHEMBL3885881, “DrugMatrix”.

Species: Rattus norvegicus
Experiment: DrugMatrix - Regimen: Daily Repeat
Format: toxicity, organism-based, Sprague-Dawley
Design: regimen Daily Repeat, gender Male, age 6-8 weeks
Conditions: in vivo, po, route oral GAVAGE, […]; for ABSOLUTE BASOPHIL / ABSOLUTE EOSINOPHIL / ABSOLUTE LYMPHOCYTE / ABSOLUTE MONOCYTE / ABSOLUTE SEGMENTED NEUTROPHIL / BASOPHIL / EOSINOPHIL / ERYTHROCYTE COUNT / HEMATOCRIT / HEMOGLOBIN / LEUKOCYTE COUNT / LYMPHOCYTE / MEAN CORPUSCULAR HEMOGLOBIN / MEAN CORPUSCULAR HEMOGLOBIN CONCENTRATION / MEAN CORPUSCULAR VOLUME / MONOCYTE / NEUTROPHIL / NUCLEATED RED BLOOD CELLS / PLATELET COUNT: tissue Blood; for ALANINE AMINOTRANSFERASE / ALBUMIN / ALKALINE PHOSPHATASE / ASPARTATE AMINOTRANSFERASE / BLOOD UREA NITROGEN / CARBON DIOXIDE / CHLORIDE / CHOLESTEROL / CREATINE PHOSPHOKINASE / CREATININE / GLUCOSE / LACTATE DEHYDROGENASE / LIPASE / PHOSPHORUS / POTASSIUM / SODIUM / TOTAL BILIRUBIN / TOTAL PROTEIN / URIC ACID: tissue Plasma
[1] = 0 mg/kg, 72 h, dose level Control, time 3 day
[2] = 0 mg/kg, 120 h, dose level Control, time 5 day
[3] = 100 mg/kg, 72 h, dose level Low, time 3 day

Compound: CCCC[C@@H](CC)COC(=O)c1ccccc1C(=O)OC[C@@H](CC)CCCC [BIS(2-ETHYLHEXYL)PHTHALATE]
- ABSOLUTE BASOPHIL [1]: 0 CELLS/uL
- ABSOLUTE EOSINOPHIL [1]: 13.67 CELLS/uL
- ABSOLUTE LYMPHOCYTE [1]: 10069.5 CELLS/uL
- ABSOLUTE MONOCYTE [1]: 50 CELLS/uL
- ABSOLUTE SEGMENTED NEUTROPHIL [1]: 516.83 CELLS/uL
- BASOPHIL [1]: 0%
- EOSINOPHIL [1]: 0.17%
- ERYTHROCYTE COUNT [1]: 5.44 x10E6/uL
- HEMATOCRIT [1]: 33.88%
- HEMOGLOBIN [1]: 13.23 G/DL
- LEUKOCYTE COUNT [1]: 10.65 x10E3/uL
- LYMPHOCYTE [1]: 94.67%
- MEAN CORPUSCULAR HEMOGLOBIN [1]: 24.37 pg
- MEAN CORPUSCULAR HEMOGLOBIN CONCENTRATION [1]: 39.05 G/DL
- MEAN CORPUSCULAR VOLUME [1]: 62.38 fL
- MONOCYTE [1]: 0.67%
- NEUTROPHIL [1]: 4.5%
- NUCLEATED RED BLOOD CELLS [1]: 0.33 /100WBC
- PLATELET COUNT [1]: 414.5 x10E3/uL
- ALANINE AMINOTRANSFERASE [1]: 72 u/L
- ALBUMIN [1]: 3.75 G/DL
- ALKALINE PHOSPHATASE [1]: 375 u/L
- ASPARTATE AMINOTRANSFERASE [1]: 87.5 u/L
- BLOOD UREA NITROGEN [1]: 14 mg/dL
- CARBON DIOXIDE [1]: 27.5 mmol/L
- CHLORIDE [1]: 95.83 MEQ/L
- CHOLESTEROL [1]: 68.5 mg/dL
- CREATINE PHOSPHOKINASE [1]: 284.33 u/L
- CREATININE [1]: 0.16 mg/dL
- GLUCOSE [1]: 156.67 mg/dL
- LACTATE DEHYDROGENASE [1]: 101.83 u/L
- LIPASE [1]: 9.67 u/L
- PHOSPHORUS [1]: 10.33 mg/dL
- POTASSIUM [1]: 5.22 MEQ/L
- SODIUM [1]: 137.67 MEQ/L
- TOTAL BILIRUBIN [1]: 0.13 mg/dL
- TOTAL PROTEIN [1]: 5.43 G/DL
- URIC ACID [1]: 0.8 mg/dL
- ABSOLUTE BASOPHIL [2]: 0 CELLS/uL
- ABSOLUTE EOSINOPHIL [2]: 20.67 CELLS/uL
- ABSOLUTE LYMPHOCYTE [2]: 11518.33 CELLS/uL
- ABSOLUTE MONOCYTE [2]: 47 CELLS/uL
- ABSOLUTE SEGMENTED NEUTROPHIL [2]: 614 CELLS/uL
- BASOPHIL [2]: 0%
- EOSINOPHIL [2]: 0.17%
- ERYTHROCYTE COUNT [2]: 5.61 x10E6/uL
- HEMATOCRIT [2]: 34.25%
- HEMOGLOBIN [2]: 13.38 G/DL
- LEUKOCYTE COUNT [2]: 12.2 x10E3/uL
- LYMPHOCYTE [2]: 94.33%
- MEAN CORPUSCULAR HEMOGLOBIN [2]: 23.83 pg
- MEAN CORPUSCULAR HEMOGLOBIN CONCENTRATION [2]: 39.08 G/DL
- MEAN CORPUSCULAR VOLUME [2]: 61.03 fL
- MONOCYTE [2]: 0.33%
- NEUTROPHIL [2]: 5.17%
- NUCLEATED RED BLOOD CELLS [2]: 0 /100WBC
- PLATELET COUNT [2]: 941.83 x10E3/uL
- ALANINE AMINOTRANSFERASE [2]: 68.83 u/L
- ALBUMIN [2]: 4.12 G/DL
- ALKALINE PHOSPHATASE [2]: 492.67 u/L
- ASPARTATE AMINOTRANSFERASE [2]: 83.33 u/L
- BLOOD UREA NITROGEN [2]: 14 mg/dL
- CARBON DIOXIDE [2]: 37 mmol/L
- CHLORIDE [2]: 98.67 MEQ/L
- CHOLESTEROL [2]: 56.5 mg/dL
- CREATINE PHOSPHOKINASE [2]: 167.33 u/L
- CREATININE [2]: 0.17 mg/dL
- GLUCOSE [2]: 157.5 mg/dL
- LACTATE DEHYDROGENASE [2]: 104.83 u/L
- LIPASE [2]: 10 u/L
- PHOSPHORUS [2]: 10.43 mg/dL
- POTASSIUM [2]: 5.46 MEQ/L
- SODIUM [2]: 143.87 MEQ/L
- TOTAL BILIRUBIN [2]: 0.17 mg/dL
- TOTAL PROTEIN [2]: 5.72 G/DL
- URIC ACID [2]: 0.85 mg/dL
- ABSOLUTE BASOPHIL [3]: 0 CELLS/uL
- ABSOLUTE EOSINOPHIL [3]: 23 CELLS/uL
- ABSOLUTE LYMPHOCYTE [3]: 7479.67 CELLS/uL
- ABSOLUTE MONOCYTE [3]: 44.67 CELLS/uL
- ABSOLUTE SEGMENTED NEUTROPHIL [3]: 819.33 CELLS/uL
- BASOPHIL [3]: 0%
- EOSINOPHIL [3]: 0.33%
- ERYTHROCYTE COUNT [3]: 5.6 x10E6/uL
- HEMATOCRIT [3]: 35.03%
- HEMOGLOBIN [3]: 13.73 G/DL
- LEUKOCYTE COUNT [3]: 8.37 x10E3/uL
- LYMPHOCYTE [3]: 89%
- MEAN CORPUSCULAR HEMOGLOBIN [3]: 24.5 pg
- MEAN CORPUSCULAR HEMOGLOBIN CONCENTRATION [3]: 39.17 G/DL
- MEAN CORPUSCULAR VOLUME [3]: 62.6 fL
- MONOCYTE [3]: 0.67%
- NEUTROPHIL [3]: 10%
- NUCLEATED RED BLOOD CELLS [3]: 0 /100WBC
- PLATELET COUNT [3]: 750.33 x10E3/uL
- ALANINE AMINOTRANSFERASE [3]: 89.33 u/L
- ALBUMIN [3]: 3.97 G/DL
- ALKALINE PHOSPHATASE [3]: 408.33 u/L
- ASPARTATE AMINOTRANSFERASE [3]: 88.67 u/L
- BLOOD UREA NITROGEN [3]: 14 mg/dL
- CARBON DIOXIDE [3]: 26.67 mmol/L
- CHLORIDE [3]: 96 MEQ/L
- CHOLESTEROL [3]: 60 mg/dL
- CREATINE PHOSPHOKINASE [3]: 210.67 u/L
- CREATININE [3]: 0.11 mg/dL
- GLUCOSE [3]: 148.33 mg/dL
- LACTATE DEHYDROGENASE [3]: 81 u/L
- LIPASE [3]: 10.33 u/L
- PHOSPHORUS [3]: 10 mg/dL
- POTASSIUM [3]: 5.11 MEQ/L
- SODIUM [3]: 138.1 MEQ/L
- TOTAL BILIRUBIN [3]: 0.17 mg/dL
- TOTAL PROTEIN [3]: 5.5 G/DL
- URIC ACID [3]: 0.63 mg/dL
